Assay results from ChEMBL document CHEMBL1128976, “Unsaturated thioacetic acids as novel mechanism-based inhibitors of peptidylglycine -hydroxylating monooxygenase” (Bioorg Med Chem Lett, 1996).

Biological target: T1, Peptidyl-glycine alpha-amidating monooxygenase (Homo sapiens) (UniProt P19021)
T1 sequence (whole entry): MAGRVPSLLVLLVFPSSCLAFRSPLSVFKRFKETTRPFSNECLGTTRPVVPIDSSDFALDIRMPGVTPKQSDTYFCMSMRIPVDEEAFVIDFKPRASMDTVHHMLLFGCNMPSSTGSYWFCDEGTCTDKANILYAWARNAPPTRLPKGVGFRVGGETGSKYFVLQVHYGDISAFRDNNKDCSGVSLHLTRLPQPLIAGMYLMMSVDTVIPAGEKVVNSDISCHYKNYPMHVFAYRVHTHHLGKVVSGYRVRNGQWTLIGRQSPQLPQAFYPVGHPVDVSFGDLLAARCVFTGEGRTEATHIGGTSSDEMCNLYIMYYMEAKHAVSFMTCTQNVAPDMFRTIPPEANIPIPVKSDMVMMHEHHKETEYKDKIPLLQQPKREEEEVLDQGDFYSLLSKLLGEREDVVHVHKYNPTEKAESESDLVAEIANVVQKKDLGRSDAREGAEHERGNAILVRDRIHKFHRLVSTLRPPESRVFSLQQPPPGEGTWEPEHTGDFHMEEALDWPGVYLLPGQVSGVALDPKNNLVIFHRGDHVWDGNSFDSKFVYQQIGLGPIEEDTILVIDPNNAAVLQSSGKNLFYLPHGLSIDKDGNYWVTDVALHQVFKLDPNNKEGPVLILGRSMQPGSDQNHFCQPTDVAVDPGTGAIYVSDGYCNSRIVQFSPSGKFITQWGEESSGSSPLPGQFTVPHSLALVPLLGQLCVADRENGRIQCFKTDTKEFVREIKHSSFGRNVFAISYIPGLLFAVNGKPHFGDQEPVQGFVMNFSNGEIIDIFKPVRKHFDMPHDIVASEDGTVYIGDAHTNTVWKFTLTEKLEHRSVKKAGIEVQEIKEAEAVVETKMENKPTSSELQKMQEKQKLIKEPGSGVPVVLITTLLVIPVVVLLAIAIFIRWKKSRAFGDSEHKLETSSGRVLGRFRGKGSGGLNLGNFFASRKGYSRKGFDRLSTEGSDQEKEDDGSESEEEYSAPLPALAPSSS
Experiment: Kinetic constant for inhibition of peptidylglycine alpha hydroxylating monooxygenase (PHM) was determined
Conditions: Equus caballus

Row | K inact | SMILES
1 | 0.2 min⁻¹ | O=C(O)CS/C=C/c1ccccc1
2 | 0.06 min⁻¹ | O=C(O)CSC#Cc1ccccc1
